Measurements as given in PMC8658889, “Seriniquinones as Therapeutic Leads for Treatment of BRAF and NRAS Mutant Melanomas” (Molecules, 2021).
Where two headings read alike, the source gives them in different places.

How the values were obtained:
SK-MEL-147 [1] = test: Trypan blue exclusion test (cell viability); format: cell-based, Human; details: for number of viable cells: SK-MEL-147, 24-h treatment, 1.0, 2.5 or 5.0 µM
Protocol: (§1) Fifty thousand (5 × 10^4) cells in 1 mL of media were seeded in cell culture dishes and, 24 h later, treated with SQ1 or SQ2 (1.0, 2.5, and 5.0 µM), vehicle (DMSO) and doxorubicin (DOX, positive control) for 24 h. Cells were detached, stained with Trypan Blue solution 0.4% (1:10, v/v; Sigma-Aldrich, St. Louis, MO, USA) and counted in a Neubauer chamber under optical microscopy to determine concentrations of viable and non-viable cells.

SK-MEL-28 [2] = test: Trypan blue exclusion test (cell viability); format: cell-based, Human; details: SK-MEL-28, 24-h treatment, 1.0, 2.5 or 5.0 µM
Protocol: as §1

DCD gene [3] = test: DCD gene expression by qPCR in SK-MEL-147; format: cell-based, Human; details: SK-MEL-147, 24 h
Protocol: (§2) […] (2.5 × 10^5) cells in 1 mL of media were seeded in cell culture dishes and, 24 h later, treated with SQ1 (0.3 µM and 0.6 µM for SK-MEL-28 and 0.9 µM and 1.8 µM for SK-MEL-147) or SQ2 (0.05 µM and 0.1 µM for SK-MEL-28 and 0.6 µM and 1.2 µM for SK-MEL-147) for 24 h. Doxorubicin (DOX; 1.4 µM for SK-MEL-28 and 0.8 µM for SK-MEL-147) was used as positive control and 0.5% DMSO as negative control.
(§3) Treated cells (Section 4.6) had their total RNA extracted and purified using TRIzol reagent (Thermo Fisher Scientific, San Jose, CA, USA), in accordance with the manufacturer’s recommendations. For analysis of DCD expression, purified total RNA was quantified using an Eon Microplate Spectrophotometer (BioTek Instruments, Winooski, VT, USA). Quantitative PCR (qPCR) was conducted on a Rotor Gene 6000 real-time cycler (Corbett Life Science, Sydney, NSW, Australia) using GoTaq 1-Step RT-qPCR System (Promega, Madison, WI, EUA). The cycle conditions were as follows: 45 °C for 10 min, 95 °C for 15 min and 40 cycles of 95 °C for 15 s; 60 °C for 60 s, followed by the melt. Relative expression was calculated using the comparative CT method Delta-Delta-Ct (DDCt). The primer sequences and concentrations utilized (DCD and RPLPO) can be consulted in Table S3.

DCD gene [4] = test: DCD gene expression by qPCR in SK-MEL-28; format: cell-based, Human; details: SK-MEL-28, 24 h
Protocol: as §2, §3

[5] = parameters: method as in PMID 30783501; details: organic and aqueous media, cited from earlier work
SK-MEL-147 [6] = test: Western blotting of apoptosis and autophagy markers; format: cell-based, Human; details: SK-MEL-147, 24 h
Protocol: as §2
(§4) Treated cells (Section 4.6) had their proteins extracted with the following solution: 10 mM ethylenediaminetetraacetic acid (EDTA), 10% triton, 2 mM phenylmethanesulfonyl fluoride (PMSF), 10 mM Tris base, 10 mM sodium pyrophosphate, 100 mM sodium fluoride, 2.5 mM sodium orthovanadate, and deionized water. The resulting extract was quantified for protein concentration and 30 µg of protein were subjected to SDS-PAGE and to Western blot analysis with the indicated antibodies: cleaved PARP-1 (#5625), PARP1 (#9542), cleaved caspase-3 (#9604), caspase-3 (#9662), SQSTM1/p62 (#5114), LC3B (#2775), and α-tubulin (#2144) from Cell Signaling Technology (Danvers, MA, USA). Images of membranes were made using Pierce ECL Western Blotting Substrate (Thermo Fisher Scientific, San Jose, CA, USA) and G:BOX Chemi XRQ (Syngene, Cambridge, UK). Band intensities were quantified using UN-SCAN-IT gel 6.1 software (Silk Scientific; Orem, UT, USA).

SK-MEL-28 [7] = test: as above; format: cell-based, Human; details: SK-MEL-28, 24 h
Protocol: as §2, §4

MRC-5 = test: MTT cytotoxicity assay; details: MRC-5 non-tumor fibroblasts, 72 h treatment, MTT
SK-MEL-147 [8] = test: Clonogenic assay; format: cell-based, Human; details: for decrease of cell proliferation expressed by colony area: SK-MEL-147, 24 h treatment, 6 days in drug-free medium
Protocol: as §2
After the cells were submitted to the treatment scheme (Section 4.6), adherent cells were collected, plated at 1 × 10^3 cell/plate on 35-mm plates and maintained in culture for 6 days in treatment-free medium. The medium was replaced every 2 days. Cells were then fixed and stained with a solution of 20% MeOH (Synth, Diadema, São Paulo, Brazil) and 0.5 g crystal violet (Sigma-Aldrich, St. Louis, MO, USA). Images were acquired using G:BOX Chemi XRQ (Syngene, Cambridge, UK) and quantified using the ImageJ program (ColonyArea; US National Institutes of Health, Bethesda, MD, USA).

SMILES | number of viable cells (SK-MEL-147 [1]) | number of viable cells (SK-MEL-28 [2]) | DCD expression relative to control (DCD gene [3]; 1.8 µM) | DCD expression increase relative to control (DCD gene [4]; 0.3 µM) | DCD expression increase relative to control (DCD gene [4]; 0.6 µM) [times] | solubility [5] | solubility ([5]; listed as seriniquinone) | apoptotic markers (cleaved PARP-1, cleaved caspase-3) (SK-MEL-147 [6]) | apoptotic markers (cleaved PARP-1, cleaved caspase-3) (SK-MEL-28 [7]) | autophagic flux (p62) (SK-MEL-28 [7]) | IC50 (MRC-5; Homo sapiens, MRC5, 72 h) [nM] | IC50 (MRC-5) [nM] | reduction of the colony levels (SK-MEL-147 [8]; SK-MEL-147, 24 h treatment at half IC50 and IC50, 6 days in drug-free medium) | decrease of cell proliferation expressed by colony area (SK-MEL-147 [8]) [%] | proportion of non-viable cells (SK-MEL-147 [1]; SK-MEL-147, 24 h, 2.5 and 5.0 µM) | DCD overexpression relative to control (DCD gene [3]; 1.2 µM) | DCD expression up-regulation relative to control (DCD gene [4]; 0.1 µM)
O=c1c2ccccc2c(=O)c2c1sc1c(=O)c3ccccc3c(=O)c12 [SQ1, seriniquinone] | significantly reducing the number of viable cells | significantly reducing the number of viable cells | twofold | twofold | 20 | lack of solubility | poor water-solubility | increase of typical apoptotic markers | increase of typical apoptotic markers | extinction of p62 | 640 | 600 | greater than 50% | 50 | – | – | –
CC(C)(O)C(O)CCc1ccc2c(=O)c3sc4c(=O)c5ccccc5c(=O)c4c3c(=O)c2c1 (stereo not drawn) [SQ2] | significantly reducing the number of viable cells | significantly reducing the number of viable cells | – | – | – | improved solubility | – | increase of typical apoptotic markers | increase of typical apoptotic markers | – | 1570 | – | – | 50 | significantly higher | eight | three
